Measurements reported in US11339171B2, “MDM2 inhibitors” (Gan & Lee Pharmaceuticals, priority 2017, dated 2022).
Several values for one entry are separate records, joined by “and”; a condition that tells them apart may be missing. Equal entries are not always repeated. Where two headings read alike, the source gives them in different places.

Columns and labels:
[1] = system: human osteosarcoma cell line SJSA-1; experiment: Inhibition of proliferation of human osteosarcoma cell line SJSA-1 (DAPI staining, In Cell Analyzer); conditions: Homo sapiens, SJSA-1, 72 h, read-out: IC50 (nM), inhibitory activity on proliferation of human osteosarcoma cell line SJSA-1, SJSA-1, incubated 72 h
[2] = Pharmacokinetics in ICR mice after intravenous and intragastric administration; assay type: in vivo; conditions: for MRT last: read-out: MRT(0-t); for MRT inf: read-out: MRT(0-∞); for Vd: read-out: Vz
Procedure, shortened: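 Compounds were dissolved at 0.5 mg/ml in DMSO/PEG400/HP-β-CD saline vehicle and given to overnight-fasted male ICR mice, 2 mg/kg by vein or 5 mg/kg by gavage (n=3 each). Plasma was then protein-precipitated, assayed by LC-MS/MS, and PK parameters including oral bioavailability were derived.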

[3] = target: T1, MDM2 (Homo sapiens, UniProt Q00987); experiment: Inhibition test of MDM2-P53 (GST-MDM2, Biotin-P53, Anti-GST-Tb, SA-XL665); assay type: binding
T1 construct: made in house
Procedure, shortened: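 Binding was measured by TR-FRET with GST-MDM2 at 4 nM final in PBS with 0.1% BSA, 5 mM DTT and 1 mM AEBSF. Compounds were tested as twelve-point 5-fold dilutions and incubated with the detection mix for 90 min at 25 °C with shaking before plate-reader reading and curve fitting.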

[4] = ICR mice, IV 2 mg/kg, individual animal, 2 mg/kg
[5] = ICR mice, PO 5 mg/kg, individual animal, 5 mg/kg
[6] = male, ICR, mouse, plasma, iv, 2 mg/kg, ICR mice, IV 2 mg/kg, individual animal
[7] = male, ICR, mouse, plasma, iv, 2 mg/kg, ICR mice, IV 2 mg/kg, mean of 3 animals
[8] = male, ICR, mouse, plasma, po, 5 mg/kg, ICR mice, PO 5 mg/kg, individual animal
[9] = male, ICR, mouse, plasma, po, 5 mg/kg, ICR mice, PO 5 mg/kg, mean of 3 animals

T1 sequence (Q00987 whole entry): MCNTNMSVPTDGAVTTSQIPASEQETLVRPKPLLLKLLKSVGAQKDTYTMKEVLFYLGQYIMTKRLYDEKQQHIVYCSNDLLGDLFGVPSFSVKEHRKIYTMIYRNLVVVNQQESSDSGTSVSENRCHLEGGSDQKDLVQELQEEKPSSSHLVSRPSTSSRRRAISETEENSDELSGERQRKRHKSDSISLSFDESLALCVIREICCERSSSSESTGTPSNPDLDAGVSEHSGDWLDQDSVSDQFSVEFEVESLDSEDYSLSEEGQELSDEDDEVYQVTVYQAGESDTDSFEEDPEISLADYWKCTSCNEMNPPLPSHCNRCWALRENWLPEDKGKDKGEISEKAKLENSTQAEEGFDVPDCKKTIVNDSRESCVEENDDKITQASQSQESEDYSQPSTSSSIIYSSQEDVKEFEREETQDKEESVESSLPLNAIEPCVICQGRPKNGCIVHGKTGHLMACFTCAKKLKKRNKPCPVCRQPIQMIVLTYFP

## COc1ncc(-c2nc3c(n2C(C)C)[C@@]2(C(=O)Nc4cc(Cl)ccc42)N(c2cc(F)cc(Cl)c2)C3=O)c(OC)n1 [Example S-45, (S)-6-chloro-5′-(3-chloro-5-fluorophenyl)-2′-(2,4-dimethoxypyrimidin-5-yl)-3′-isopropyl-3′H-spiro[dihydroindole-3,4′-pyrrolo[3,4-d]imidazole]-2,6′(5′H)-dione]
[1]
  IC50: 6.2 nM
[2]; [4]
  AUC(0-t): 1865.23 ng·h/mL and 2072.07 ng·h/mL
  AUC(0-∞): 1895.22 ng·h/mL and 2103.04 ng·h/mL
  CL: 17.59 mL/min/kg and 15.85 mL/min/kg
  Cmax: 779.74 ng/mL and 882.75 ng/mL
  MRT(0-t): 1.36 h
  MRT(0-∞): 1.44 h
  Tmax: 0.08 h and 0.25 h
  Vz: 1.54 L/kg and 1.37 L/kg
  t1/2: 1.01 h and 1.00 h
[2]; [5]
  AUC(0-t): 5315.63 ng·h/mL and 4196.04 ng·h/mL
  AUC(0-∞): 5471.40 ng·h/mL and 4431.71 ng·h/mL
  Cmax: 1355.63 ng/mL and 1169.32 ng/mL
  MRT(0-t): 2.53 h
  MRT(0-∞): 2.75 h
  Tmax: 1.00 h
  t1/2: 1.54 h and 1.87 h
[2]; [6]
  AUC(0-inf): 1830 ng·h/mL
  clearance: 18.3 mL/min/kg
  MRT last: 1.34 h
  MRT inf: 1.45 h
  Vd: 1.65 L/kg
[2]; male, ICR, mouse, plasma, iv, 2 mg/kg, ICR mice, IV 2 mg/kg, individual animal, read-out: AUC(0-t)
  AUC(0-t): 1790 ng·h/mL
[2]; male, ICR, mouse, plasma, iv, 2 mg/kg, ICR mice, IV 2 mg/kg, individual animal, read-out: Cmax
  Cmax: 766 ng/mL
[2]; male, ICR, mouse, plasma, iv, 2 mg/kg, ICR mice, IV 2 mg/kg, individual animal, read-out: t1/2 (converted)
  half-life: 1.05 h
[2]; [7]
  AUC(0-inf): 1940 ng·h/mL
  clearance: 17.2 mL/min/kg
  MRT last: 1.35 h
  MRT inf: 1.45 h
  Vd: 1.52 L/kg
[2]; male, ICR, mouse, plasma, iv, 2 mg/kg, ICR mice, IV 2 mg/kg, mean of 3 animals, read-out: AUC(0-t)
  AUC(0-t): 19100 ng·h/mL
[2]; male, ICR, mouse, plasma, iv, 2 mg/kg, ICR mice, IV 2 mg/kg, mean of 3 animals, read-out: Cmax
  Cmax: 809 ng/mL
[2]; male, ICR, mouse, plasma, iv, 2 mg/kg, ICR mice, IV 2 mg/kg, mean of 3 animals, read-out: Tmax
  Tmax: 0.139 h
[2]; male, ICR, mouse, plasma, iv, 2 mg/kg, ICR mice, IV 2 mg/kg, mean of 3 animals, read-out: t1/2 (converted)
  half-life: 1.02 h
[2]; [8]
  AUC(0-inf): 6350 ng·h/mL
  MRT last: 2.56 h
  MRT inf: 3.21 h
[2]; male, ICR, mouse, plasma, po, 5 mg/kg, ICR mice, PO 5 mg/kg, individual animal, read-out: AUC(0-t)
  AUC(0-t): 5860 ng·h/mL
[2]; male, ICR, mouse, plasma, po, 5 mg/kg, ICR mice, PO 5 mg/kg, individual animal, read-out: Cmax
  Cmax: 1590 ng/mL
[2]; male, ICR, mouse, plasma, po, 5 mg/kg, ICR mice, PO 5 mg/kg, individual animal, read-out: Tmax
  Tmax: 0.5 h
[2]; male, ICR, mouse, plasma, po, 5 mg/kg, ICR mice, PO 5 mg/kg, individual animal, read-out: t1/2 (converted)
  half-life: 2.17 h
[2]; [9]
  AUC(0-inf): 5420 ng·h/mL
  MRT last: 2.55 h
  MRT inf: 2.99 h
[2]; male, ICR, mouse, plasma, po, 5 mg/kg, ICR mice, PO 5 mg/kg, mean of 3 animals, read-out: AUC(0-t)
  AUC(0-t): 5120 ng·h/mL
[2]; male, ICR, mouse, plasma, po, 5 mg/kg, ICR mice, PO 5 mg/kg, mean of 3 animals, read-out: Cmax
  Cmax: 1370 ng/mL
[2]; male, ICR, mouse, plasma, po, 5 mg/kg, ICR mice, PO 5 mg/kg, mean of 3 animals, read-out: Tmax
  Tmax: 0.83 h
[2]; male, ICR, mouse, plasma, po, 5 mg/kg, ICR mice, PO 5 mg/kg, mean of 3 animals, read-out: t1/2 (converted)
  half-life: 1.86 h
[2]; male, ICR, mouse, plasma, po, 5 mg/kg, oral intragastric administration 5 mg/kg, read-out: AUC0-t
  AUC(0-t): 5120 ng·h/mL
[2]; male, ICR, mouse, plasma, po, 5 mg/kg, oral intragastric administration 5 mg/kg, read-out: half-life (converted)
  half-life: 1.86 h
[2]; male, ICR, mouse, plasma, oral intragastric administration 5 mg/kg, read-out: bioavailability
  bioavailability: 107%
[2]; male, mouse, plasma, ICR mice, PO 5 mg/kg vs IV 2 mg/kg, from mean values, read-out: F* (bioavailability)
  bioavailability: 107%
[3]
  IC50: 1.72 nM
